Test results published in patent US20160066550A1, “Animal Model Expressing Luciferase under Control of the Myelin Basic Protein Promoter (MBP-luci) and Use of the Model for Bioluminescence In Vivo Imaging” (SANOFI, priority 2009, published 2016).
Like-named read-outs stand apart in the source and are kept apart here.

Assays:
[1] = test system: MBP-luci mice; type: in vivo, mouse; conditions: 0.2% cuprizone diet; for imaging signal drop: MBP 5k-luci line 171 (B6C3)
Experimental: To quantify bioluminescence, identical circular regions of interest were positioned to encircle each mouse head region, and the imaging signal was quantitated as average radiance (photons/s/cm2/steridian) using […] software (version 2.5, Xenogen).
As further proof, a MBP 5k-luci line 171 (B6C3 strain) was tested. […] There was significant imaging signal drop with cuprizone treatment (demyelination). For example, there is 43% signal drop from wk 0 to wk 4 and 74% signal drop from wk 0 to wk 6.
Three different MBP-luci lines (line 171 B6C3H het strain, line 121 C57BL/6 heterozygous strain and line 171 B6C3H homozygous strain) were compared by bioimaging and Luxol Fast Blue (LFB; myelin stain) histology. Mice were placed on a diet containing 0.2% cuprizone for 4 or 5 weeks. Imaging data were normalized to week 0 baseline measurements. At the end of each study, mouse brains were harvested and serial paraffin sections were stained for myelin with LFB. Average qualitative LFB score (0 to 5) was shown in the chart of FIG. 21. […] Line 171 B6C3H homozygous mice had the largest bioimaging signal reduction during cuprizone food feeding in the reference to their base line imaging before cuprizone food feeding. For example, after three weeks on the cuprizone diet, 171 B6C3H homozygous mice had 72% signal reduction (week 3 reference to week 0, p<0.05), while line 171 B6C3H heterozygous mice had 45% bioimaging signal reduction (reference to week 0, p<0.05). Line 121 C57 BL/6 heterozygous mice had the smallest reduction in luciferase signal (33% reduction at week 3 over week 0, p<0.05).

[2] = test system: MBP-luc line 171 heterozygous B6C3H mice; experiment: MBP-luci bioimaging, cuprizone model, demyelination phase, line 171 heterozygous; type: in vivo, mouse
Experimental: (§1) Mice were imaged at week 0 (baseline), week 3 and week 4 data normalized to the week 0 baseline.
As described above, mice were injected with 250 mg/kg D-luciferin through SC, IP or IV. After 5 (intravenous) or 8 (intraperitoneal or SC) minutes, mice were imaged using the IVIS 100 (Xenogen) for 16 minutes (60 seconds imaging and 60 seconds interval for 8 pictures at bin size 8). To quantify bioluminescence, identical circular regions of interest were positioned to encircle each mouse head region, and the imaging signal was quantitated as average radiance (photons/s/cm2/steridian) using […] software (version 2.5, Xenogen). The head region of interest was kept constant in area and positioning within all experiments. Data were normalized to bioluminescence at the initiation of treatment for each animal.
as §1

Row | SMILES | imaging signal drop ([1]; wk 0 to wk 4) | imaging signal drop ([1]; wk 0 to wk 6) | reduction in luciferase signal ([1]; week 3 over week 0, line 121 C57 BL/6 heterozygous, p<0.05) | bioimaging signal reduction ([1]; week 3 vs week 0, line 171 B6C3H heterozygous, p<0.05) | bioimaging signal reduction ([1]; week 3 vs week 0, line 171 B6C3H homozygous, p<0.05) | imaging signal vs vehicle control ([2]; 10 mg/kg oral, week 3 and week 4 on cuprizone diet, first study (FIG. 17)) | cuprizone-induced bioimaging signal reduction ([2]; 10 mg/kg, week 3, second study (FIG. 18), vehicle 47% reduction, p=0.028) | bioimaging signal increase ([2]; 10 mg/kg, week 4, second study (FIG. 18), vehicle 25% reduction) | transgene activity compared to the vehicle control group ([2]; 10 mg/kg, weeks 3 and 4, second study (FIG. 18))
1 | O=C(NN=C1CCCCC1)C(=O)NN=C1CCCCC1 [cuprizone, bis-cyclohexanone oxaidihydrazone] | 43% | 74% | 33% | 45% | 72% | – | – | – | –
2 | OCCOCCN1CCN(C2=Nc3ccccc3Sc3ccccc32)CC1 [QTP, Quetiapine] | – | – | – | – | – | significant increases | 25% | 6% | significantly greater transgene activity
